Results on twelve compounds are retold here after ChEMBL document CHEMBL1201862, “PubChem BioAssay data set” (2004).

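Cultured in 96-well plates, cells were exposed to test compound for 48 hours across five concentrations. GI50 is the concentration that inhibits growth by half.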 Activity calls are given as the source filed them. Rule as the data show it: active = GI50 up to about 1.1 µM and inactive = higher.

Among the test systems are BT-549; DU-145; EKVX; Hs-578T; LOX IMVI; MOLT-4; NCI/ADR-RES; RXF 393; SF-295; SF-539; SK-MEL-28; SNB-19; T47D; UACC-257; UACC-62; UO-31; A549.
Assay in all cases: NCI anticancer screen, dose series, 48 h

Turning to `O=C1O/C(=C\c2ccc(O)cc2)C(c2ccc(O)c(Cl)c2)=C1Br`, the GI50 in the assay on BT-549 is 6.35 µM (inactive); with DU-145, 12.9 µM (inactive); in the assay with EKVX it was 14.1 µM (inactive); with Hs-578T, 11.6 µM (inactive); in the assay with LOX IMVI, 42 µM (inactive); in the assay with MOLT-4, 11.7 µM (inactive). Moreover, the GI50 in the assay with NCI/ADR-RES was 11.1 µM (inactive); in the assay on RXF 393 it was 18.6 µM (inactive); with SF-295, 14.5 µM (inactive); with SF-539, 12 µM (inactive); in the assay with SK-MEL-28, 13.4 µM (inactive); in the assay with SNB-19 it was 15.7 µM (inactive). Moreover, the GI50 is 17.7 µM (inactive) in the assay with T47D, 13.9 µM (inactive) in the assay on UACC-257, 13.7 µM (inactive) in the assay on UACC-62 and 14.6 µM (inactive) with UO-31.

As to `CN(C)CN1C(=O)/C(=N\n2c(S)nnc2-c2ccncc2)c2ccccc21`, the GI50 with A549 is 55 µM (inactive); with BT-549 it was 94.4 µM (inactive); in the assay on DU-145, 26.5 µM (inactive); in the assay with EKVX it was > 100 µM (inactive); with Hs-578T, 42.5 µM (inactive); with LOX IMVI, 22.9 µM (inactive). Moreover, the GI50 with MOLT-4 is 12.1 µM (inactive); in the assay with NCI/ADR-RES it was 41.9 µM (inactive); in the assay with RXF 393, 17 µM (inactive); in the assay with SF-295, > 100 µM (inactive); in the assay on SF-539 it was 23.5 µM (inactive); in the assay on SK-MEL-28, 57.1 µM (inactive). Also, the GI50 with SNB-19 was 54.5 µM (inactive); with T47D, 30.8 µM (inactive); in the assay on UACC-257 it was 15.5 µM (inactive); in the assay with UACC-62, 42.4 µM (inactive); with UO-31 it was 29.5 µM (inactive).

For the compound `C/C(=N\NC(=O)c1ccncc1)c1sc(-n2nc(-c3ccccc3)cc2-c2ccccc2)nc1C`, the GI50 in the assay on A549 is > 31.6 µM (inactive); in the assay on BT-549, > 31.6 µM (inactive); in the assay with DU-145, > 31.6 µM (inactive); in the assay on EKVX, 47.8 µM (inactive); in the assay with Hs-578T, > 74.3 µM (inactive); with LOX IMVI it was > 80.9 µM (inactive). Besides, the GI50 is 17.1 µM (inactive) in the assay with MOLT-4; > 100 µM (inactive) in the assay with NCI/ADR-RES; > 31.6 µM (inactive) in the assay on RXF 393; > 31.6 µM (inactive) in the assay on SF-295; > 31.6 µM (inactive) in the assay on SF-539; > 31.6 µM (inactive) in the assay with SK-MEL-28. The GI50 with SNB-19 was > 31.6 µM (inactive); in the assay on T47D, 18.5 µM (inactive); in the assay on UACC-257 it was > 31.6 µM (inactive); in the assay with UACC-62, > 31.6 µM (inactive); in the assay with UO-31 it was > 31.6 µM (inactive).

Regarding `O=C(CCC(=O)OCC1OC(O)(CC2OC(CO)C(O)C(O)C2O)C(O)C1O)OCc1ccccc1` (configuration not stated), the GI50 in the assay on A549, in the assay on BT-549, with DU-145, in the assay with EKVX, with Hs-578T and in the assay with LOX IMVI was > 100 µM (inactive) throughout. The GI50 with NCI/ADR-RES, in the assay with RXF 393, in the assay with SF-295, in the assay on SF-539, with SK-MEL-28 and with SNB-19 was > 100 µM (inactive) throughout. The GI50 in the assay with T47D, in the assay on UACC-257, in the assay with UACC-62 and with UO-31 was > 100 µM (inactive) in each case.

Take `O=c1sc(Nc2ccc3ccccc3c2Cl)nc2ccccc12`: the GI50 with A549 is > 100 µM (inactive); in the assay with BT-549, > 100 µM (inactive); with DU-145 it was > 100 µM (inactive); in the assay on EKVX, > 100 µM (inactive); in the assay with Hs-578T, 57.1 µM (inactive); in the assay with LOX IMVI, > 100 µM (inactive). For the same compound, the GI50 in the assay with NCI/ADR-RES was > 100 µM (inactive); in the assay on RXF 393, 72.1 µM (inactive); in the assay with SF-295, > 100 µM (inactive); with SF-539, 73.8 µM (inactive); with SK-MEL-28 it was > 100 µM (inactive); in the assay with SNB-19 it was > 100 µM (inactive). Also, the GI50 in the assay with T47D, with UACC-257, in the assay on UACC-62 and in the assay with UO-31 was > 100 µM (inactive) each time.

Turning to `Cc1ccc2nc(NC(=O)/C(Cc3nc4ccc(Cl)cc4nc3O)=N\NC(C)(C)C)sc2c1`, the GI50 was > 100 µM (inactive) in the assay on A549; > 100 µM (inactive) in the assay on BT-549; > 100 µM (inactive) in the assay with DU-145; 18.2 µM (inactive) in the assay with Hs-578T; > 100 µM (inactive) in the assay on LOX IMVI; > 100 µM (inactive) in the assay with MOLT-4. The GI50 with NCI/ADR-RES was > 100 µM (inactive); in the assay on RXF 393, > 100 µM (inactive); with SF-295, 36.1 µM (inactive); in the assay with SF-539, > 100 µM (inactive); in the assay with SK-MEL-28, > 100 µM (inactive); in the assay on SNB-19, > 100 µM (inactive). The GI50 with T47D is > 100 µM (inactive); with UACC-257 it was > 100 µM (inactive); in the assay with UACC-62, > 100 µM (inactive); with UO-31, 59.6 µM (inactive).

As for `CCOC(=O)/C=C(\C(=O)OCC)n1ccc(=O)n(Cc2cnnn2CCCCOC(C)=O)c1=O`, the GI50 in the assay with A549 was 19.9 µM (inactive); with BT-549 it was 16.4 µM (inactive); in the assay on DU-145 it was 18.6 µM (inactive); with EKVX, 11 µM (inactive); with Hs-578T, 16.3 µM (inactive); in the assay with LOX IMVI, 4.09 µM (inactive). Besides, the GI50 was 2.49 µM (inactive) in the assay with MOLT-4; 17.6 µM (inactive) in the assay on NCI/ADR-RES; 0.697 µM (active) in the assay on RXF 393; 27.4 µM (inactive) in the assay on SF-295; 2.03 µM (inactive) in the assay with SF-539; 6 µM (inactive) in the assay with SK-MEL-28. The GI50 was 1.57 µM (inactive) in the assay with SNB-19; 4.07 µM (inactive) in the assay with T47D; 11.3 µM (inactive) with UACC-257; 6.14 µM (inactive) in the assay with UACC-62; 21.7 µM (inactive) with UO-31.

`CO[C@H]1c2cccc3cccc(c23)[C@@H]1n1[nH]c(=O)n(C(C)(C)C)c1=O`: the GI50 in the assay on A549, with BT-549, with DU-145, in the assay on EKVX, in the assay on Hs-578T and in the assay with LOX IMVI was > 100 µM (inactive) in each case. For the same compound, the GI50 with MOLT-4, in the assay with NCI/ADR-RES, in the assay on RXF 393, with SF-539, in the assay with SK-MEL-28 and in the assay with SNB-19 was > 100 µM (inactive) in each case. The GI50 in the assay with T47D was > 100 µM (inactive); in the assay on UACC-257, > 100 µM (inactive); in the assay with UACC-62, > 100 µM (inactive); in the assay with UO-31 it was 69.8 µM (inactive).

On to `Cc1ccc(/C=C2\Cc3c(C)cc(C)cc3C2=O)c(C(=O)O)c1`, for which the GI50 with A549 is 49.9 µM (inactive); in the assay with BT-549, 28.6 µM (inactive); in the assay on DU-145 it was 51.5 µM (inactive); in the assay on EKVX, 33.4 µM (inactive); in the assay on Hs-578T, 35.2 µM (inactive); in the assay on LOX IMVI, 22.6 µM (inactive). Also, the GI50 in the assay on MOLT-4 is 35.5 µM (inactive); in the assay on NCI/ADR-RES, 90.6 µM (inactive); in the assay with RXF 393, 39.9 µM (inactive); with SF-295 it was 41.9 µM (inactive); with SF-539, 15.9 µM (inactive); in the assay with SK-MEL-28 it was 56.2 µM (inactive). Also, the GI50 was 44.5 µM (inactive) in the assay on SNB-19; 82.2 µM (inactive) in the assay with T47D; 61.8 µM (inactive) with UACC-257; 41.1 µM (inactive) in the assay on UACC-62; 50.7 µM (inactive) in the assay with UO-31.

For `COc1cc(/C=C/C(=O)CC(=O)/C=C/c2ccc(O)c(OC)c2)ccc1O` [CURCUMIN], the GI50 is 12.8 µM (inactive) with A549; 4.97 µM (inactive) in the assay on BT-549; 15.7 µM (inactive) in the assay on DU-145; 10.9 µM (inactive) in the assay on Hs-578T; 2.72 µM (inactive) in the assay on LOX IMVI; 4.68 µM (inactive) in the assay with MOLT-4. In addition, the GI50 with NCI/ADR-RES was 7.26 µM (inactive); in the assay on RXF 393, 3 µM (inactive); in the assay with SF-295 it was 8.04 µM (inactive); in the assay with SF-539 it was 2.84 µM (inactive); with SK-MEL-28, 4.5 µM (inactive); in the assay on SNB-19 it was 9.42 µM (inactive). Also, the GI50 in the assay on T47D was 8.36 µM (inactive); in the assay with UACC-257, 11.5 µM (inactive); in the assay on UACC-62 it was 6.49 µM (inactive); in the assay on UO-31 it was 11.3 µM (inactive).

Take `COC(=O)C1(OC(=O)Sc2ccccc2)CCN(C)CC1`: the GI50 in the assay on A549 is 11.4 µM (inactive); with BT-549, 1.5 µM (inactive); with DU-145, 23.8 µM (inactive); with EKVX it was 9.1 µM (inactive); with Hs-578T, 21.1 µM (inactive); with LOX IMVI, 8.07 µM (inactive). Moreover, the GI50 was 6.68 µM (inactive) with MOLT-4; 13.1 µM (inactive) in the assay on NCI/ADR-RES; 14.3 µM (inactive) in the assay with RXF 393; 25.2 µM (inactive) with SF-295; 10.8 µM (inactive) in the assay on SF-539; 27.9 µM (inactive) with SK-MEL-28. In addition, the GI50 in the assay on SNB-19 was 28.3 µM (inactive); with T47D, 31.3 µM (inactive); in the assay with UACC-257 it was 20.2 µM (inactive); with UACC-62, 21.3 µM (inactive); in the assay with UO-31 it was 3.79 µM (inactive).

Turning to `C[C@]12CCC(=O)C=C1CC[C@@H]1[C@@H]2[C@@H](O)C[C@@]2(C)[C@H]1CC[C@]2(O)C(=O)COC(=O)C1CCCC1`, the GI50 in the assay with A549 was 58.2 µM (inactive); in the assay on BT-549, > 100 µM (inactive); with DU-145, > 100 µM (inactive); in the assay on EKVX, 32.7 µM (inactive); in the assay on Hs-578T, > 100 µM (inactive); in the assay on LOX IMVI, > 100 µM (inactive). Also, the GI50 in the assay on NCI/ADR-RES, in the assay with RXF 393, with SF-295, in the assay with SF-539, in the assay with SK-MEL-28 and with SNB-19 was > 100 µM (inactive) throughout. In addition, the GI50 with T47D, with UACC-257, with UACC-62 and in the assay with UO-31 was > 100 µM (inactive) throughout.
